According to patent US7018989B2, “Chemical compounds” (University College Cardiff Consultants, LTD, priority 1995, dated 2006):
Like-named read-outs stand apart in the source and are kept apart here.

Tests used:
III-B strain of HIV-1 = assay: microbe, parasite or virus in culture; format: cell-based
Protocol: (§1) C8166 cells. Cells were grown in RPMI 1640 with 10% calf serum. 4×10^4 cells per microtiter plate well were mixed with 5-fold dilutions of compound prior to addition of 10 CCID50 units of III-B strain of HIV-1 and incubated for 5–7 days (Betbeder et al. Antiviral Chem. Chemother. 1, 241–247, 1990). Formation of syncytia was examined from 2 days post-infection. Culture fluid was collected at 5–7 days and gp120 antigen production measured by ELISA (Mahmood and Hay, J. Immunol. Meth., 151, 9–13, 1992). […] Cell viability of infected and uninfected cells were assessed by the MTT-Formazen method (Pauwels et al. J. Virol. Meth. 20, 309–321, 1988).
(§2) Each assay was carried out in duplicate, on at least two separate occasions, and data quoted are the average of each separate assay.

C8166 cells = assay: Toxicity in C8166 cells (MTT-Formazen); format: cell-based; details: Table 3
Protocol: as §1, §2

HIV-1 [1] = assay: Inhibition of HIV-1 in MT4 cells; format: cell-based; details: read-out: HIV1 MT4: EC50 for inhibition of HIV-1 in MT4 cells
Protocol: (§3) Cells were infected with HIV-1 as previously described [Balzarini et al. AIDS (1991), 5, 21–28]. Briefly, 5×10^5 cells per milliliter were infected with HIV-1 or HIV-2 at 100 CCID50 (50% cell culture infective dose) per milliliter of cell suspension. Then 100 μL of the infected cell suspension was transferred to microtiter plate wells and mixed with 100 μL of the appropriate dilutions of the test compounds. After 4 days giant cell formation was recorded microscopically in the HIV-infected cell cultures [CEM], and after 5 days the number of viable cells was determined by trypan blue staining of the HIV-infected cell cultures [MT4].
(§4) The data columns are, in order: • HIV1 MT4: EC50 in μM for inhibition of HIV-1 in MT4 cells. • HIV2 MT4: EC50 in μM for inhibition of HIV-2 in MT4 cells. • CC50 MT4: CC50 in μM for toxicity to MT-4 cells. • HIV1 CEM: EC50 in μM for inhibition of HIV-1 in CEM cells. • HIV2 CEM: EC50 in μM for inhibition of HIV-2 in CEM cells. • HIV2 CEM-TK-: EC50 in μM for inhibition of HIV-2 in CEM/TK^− cells. • CC50 CEM: CC50 in μM for toxicity to CEM cells. • EC50 MSV: EC50 in μM for inhibition of MSV • MCC MSV: Minimum cytotoxic concentration in MSV assay

HIV-2 [2] = assay: Inhibition of HIV-2 in MT4 cells; format: cell-based; details: read-out: HIV2 MT4: EC50 for inhibition of HIV-2 in MT4 cells
Protocol: as §3, §4

MT-4 cells = assay: Toxicity to MT-4 cells; format: cell-based, human; details: read-out: CC50 MT4: CC50 for toxicity to MT-4 cells
Protocol: as §3, §4

HIV-1 [3] = assay: microbe, parasite or virus in culture
Procedure, shortened: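 Giant cell formation, recorded under the microscope on day 4, served as the end point for CEM cells, while MT-4 viability was determined by trypan blue exclusion on day 5. Cell suspensions (5×10^5/mL) received virus at 100 CCID50/mL before compound addition.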

HIV-2 [4] = assay: Inhibition of HIV-2 in CEM cells (giant cell formation); format: cell-based; details: read-out: HIV2 CEM: EC50 for inhibition of HIV-2 in CEM cells
Procedure, shortened: (§5)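 Infection used 100 CCID50 per mL on 5×10^5 cells/mL, followed by exposure to serial compound dilutions. Read-out: microscopic giant cell scoring after 4 days (CEM); trypan blue viable cell count after 5 days (MT-4).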

HIV-2 [5] = assay: Inhibition of HIV-2 in CEM/TK- cells; format: cell-based
Procedure, shortened: as §5

CEM cells = assay: Toxicity to CEM cells; format: cell-based, human; details: Table 6; mean of two or more repeat experiments
HIV1 d4T-Sensitive = assay: HIV1 in HeLa cells, d4T-sensitive strain; format: cell-based, HIV-1; details: Table 4
HIV1 d4T-Resistant = assay: HIV1 in HeLa cells, d4T-resistant strain; format: cell-based, HIV-1; details: Table 4; read-out: EC50 HeLa HIV1 d4T-Resistant
[6] = HIV1 in C8166 cells, Table 3, read-out: Activity EC50
[7] = Table 6, mean of two or more repeat experiments
[8] = read-out: HIV1 CEM: EC50 for inhibition of HIV-1 in CEM cells, Table 6, mean of two or more repeat experiments
[9] = Table 6, mean of two or more repeat experiments, read-out: HIV2 CEM-TK-: EC50 for inhibition of HIV-2 in CEM/TK^− cells
[10] = read-out: HIV1 CEM: EC50 for inhibition of HIV-1 in CEM cells, CEM cells, HIV-1
[11] = CEM/TK- cells, HIV-2, read-out: HIV2 CEM-TK-: EC50 for inhibition of HIV-2 in CEM/TK- cells

SMILES | Selectivity CC50/EC50 × 10^3 (III-B strain of HIV-1) | EC50 (III-B strain of HIV-1; [6]) | CC50 (C8166 cells) | EC50 (HIV-1 [1]; [7]) | EC50 (HIV-2 [2]; [7]) | CC50 (MT-4 cells; [7]) | EC50 (HIV-1 [3]; [8]) | EC50 (HIV-2 [4]; [7]) | EC50 (HIV-2 [5]; [9]) | CC50 (CEM cells) | other results
COC(=O)C(CC(C)C)NP(=O)(OCC1C=CC(n2cc(C)c(=O)[nH]c2=O)O1)Oc1ccccc1 (stereo not shown) [Compound 864, 2′,3′-dideoxy-2′,3′-didehydrothymidine-5′-(phenyl N-methoxy-leucinyl) phosphoramidate] | >62.5 × 10^3 | 0.016 µM | > 1000 µM | 0.2 µM | 0.5 µM | 62 µM | 1.1 µM | 2.23 µM | 0.4 µM | ≥ 250 µM | 
COC(=O)C(NP(=O)(OCC1C=CC(n2cc(C)c(=O)[nH]c2=O)O1)Oc1ccccc1)C(C)C (stereo not shown) [Compound 865, 2′,3′-dideoxy-2′,3′-didehydrothymidine-5′-(phenyl N-methoxyvalinyl) phosphoramidate] | >1.25 × 10^3 | 0.8 µM | > 1000 µM | 3.6 µM | 11.2 µM | ≥ 250 µM | 12.5 µM | 12.5 µM | 4 µM | > 250 µM | 
COC(=O)C(Cc1ccccc1)NP(=O)(OC[C@@H]1C=C[C@H](n2cc(C)c(=O)[nH]c2=O)O1)Oc1ccccc1 (stereo partly shown) [Compound 863, 2′,3′-dideoxy-2′,3′-didehydrothymidine-5′-(phenyl N-methoxy-phenylalaninyl) phosphoramidate] | 31.2 × 10^3 | 0.016 µM | 500 µM | 0.2 µM | 0.4 µM | 34 µM | 0.8 µM | 1.35 µM | 0.33 µM | 216 µM | 
CCc1ccc(OP(=O)(N[C@@H](C)C(=O)OC)OCC2C=CC(n3cc(C)c(=O)[nH]c3=O)O2)cc1 (stereo partly shown) [Compound 323, 2′,3′-dideoxy-2′,3′-didehydrothymidine 5′-(p-ethylphenylmethoxyalaninyl) Phosphoramidate] | 15.6 × 10^3 | 0.0032 µM | 50 µM | 0.057 µM | 0.063 µM | > 100 µM | 0.07 µM | 0.16 µM | 0.06 µM | 60 µM | 
COC(=O)C(C)NP(=O)(OC[C@@H]1C=C[C@H](n2cc(C)c(=O)[nH]c2=O)O1)Oc1c(F)c(F)c(F)c(F)c1F (stereo partly shown) [Compound 779, 2′,3′-dideoxy-2′,3′-didehydrothymidine-5′-(2,3,4,5,6-pentafluorophenyl-N-methylalaninyl) phosphoramidate] | 1.25 × 10^3 | 0.064 µM | 80 µM | 1.72 µM | 4.01 µM | 82 µM | 2.5 µM | 3.7 µM | 8.5 µM | 115 µM | 
Cc1cn(C2C=CC(COP(=O)(NC(Cc3ccccc3)C(=O)OCc3ccccc3)Oc3ccccc3)O2)c(=O)[nH]c1=O (stereo not shown) [Compound 866, 2′,3′-dideoxy-2′,3′-didehydrothymidine-5′-(phenyl N-methoxyglycinyl) phosphoramidate] | >1.25 × 10^3 | 0.8 µM | > 1000 µM | 1.3 µM | 6.7 µM | ≥ 250 µM | 6 µM | 6 µM | 7 µM | ≥ 250 µM | 
COC(=O)C(C)NP(=O)(OCC1OC(n2cc(C)c(=O)[nH]c2=O)CC1N=[N+]=[N-])Oc1cccc(C(F)(F)F)c1 (stereo not drawn) [Compound 536, 3′-Deoxy-3′β-azidothymidine 5′-(m-trifluoromethylphenylmethoxylalaninyl) phosphoramidate] |  |  |  |  |  |  |  |  |  |  | EC50 (HIV-1 [1]; MT4 cells, HIV-1): 0.45 µM; EC50 (HIV-2 [2]; MT4 cells, HIV-2): 0.9 µM; CC50 (MT-4 cells; MT-4 cells): 104 µM; EC50 (HIV-1 [3]; [10]): 1 µM; EC50 (HIV-2 [4]; CEM cells, HIV-2): 2 µM; EC50 (HIV-2 [5]; [11]): 3 µM
COC(=O)[C@H](C)NP(=O)(OC)OC[C@@H]1C=C[C@H](n2cc(C)c(=O)[nH]c2=O)O1 (stereo partly shown) [Compound 740] |  |  |  | 25.4 µM | 50.9 µM | > 250 µM | 20 µM | 50 µM | > 250 µM | > 250 µM | 
COC(=O)C(CCSC)NP(=O)(OCC1C=CC(n2cc(C)c(=O)[nH]c2=O)O1)Oc1ccccc1 (stereo not shown) [Compound 867, 2′,3′-dideoxy-2′,3′-didehydrothymidine-5′-(phenyl N-methoxymethioninyl) phosphoramidate] | >62.5 × 10^3 | 0.0016 µM | > 1000 µM | 0.2 µM | 0.4 µM | 22 µM | 0.6 µM | 0.8 µM | 0.34 µM | ≥ 250 µM | 
CCOP(=O)(N[C@@H](C)C(=O)OC)OC[C@@H]1C=C[C@H](n2cc(C)c(=O)[nH]c2=O)O1 (stereo partly shown) [Compound 564] |  |  |  | 28.5 µM | 62.6 µM | ≥ 250 µM | > 48 µM | > 240 µM | > 48 µM | ≥ 250 µM | 
COC(=O)C(C)NP(=O)(OCC1C=CC(n2cc(C)c(=O)[nH]c2=O)O1)Oc1cccc(C(F)(F)F)c1 (stereo not shown) [Compound 526, 2′,3′-dideoxy-2′,3′-didehydrothymidine 5′-(m-trifluromethylphenylmethoxyalaninyl) phosphoramidate] | 250 × 10^3 | 0.0008 µM | 200 µM | 0.05 µM | 0.11 µM | 10 µM | 0.15 µM | 0.15 µM | 0.12 µM | 30 µM | EC50 (III-B strain of HIV-1; Table 4, read-out: EC50 8166 HIV1): 0.0008 µM; EC50 (HIV-1 [3]; read-out: EC50 CEM HIV1, Table 4): 0.08 µM; EC50 (HIV-2 [5]; Table 4, read-out: EC50 CEM TK− HIV2): 0.06 µM; EC50 (HIV1 d4T-Sensitive): 0.04 µM; EC50 (HIV1 d4T-Resistant): 0.05 µM
COC(=O)C(Cc1ccccc1)NP(=O)(OCC1C=CC(n2cc(C)c(=O)[nH]c2=O)O1)OCC(Cl)(Cl)Cl (stereo not shown) [Compound 325] |  |  |  | 0.44 µM | 0.5 µM | > 100 µM | 1 µM | 2 µM | 0.7 µM |  | 
Cc1cn(C2CC(N=[N+]=[N-])C(CO)O2)c(=O)[nH]c1=O (stereo not shown) [Cpd 499] |  |  |  |  |  |  |  |  |  |  | EC50 (HIV-1 [1]; MT4 cells, HIV-1): 0.9 µM; EC50 (HIV-2 [2]; MT4 cells, HIV-2): 2.3 µM; CC50 (MT-4 cells; MT-4 cells): > 250 µM; EC50 (HIV-1 [3]; [10]): 3 µM; EC50 (HIV-2 [4]; CEM cells, HIV-2): 4 µM; EC50 (HIV-2 [5]; [11]): > 250 µM
CCCOP(=O)(N[C@@H](C)C(=O)OC)OC[C@@H]1C=C[C@H](n2cc(C)c(=O)[nH]c2=O)O1 (stereo partly shown) [Compound 326] |  |  |  | 36 µM | 84 µM | > 250 µM | > 230 µM | > 230 µM | 135 µM | ≥ 250 µM | 
